Data on one compound can be found in patent US9512086B2, “Compound for promoting apoptosis of cancer cells and a pharmaceutical composition containing the same and uses thereof” (National Chiao Tung University, priority 2014, dated 2016).

The target of experiment [1] is T1, LIMK1 (LIM motif-containing protein kinase-1) (Homo sapiens, UniProt P53667).
T1 construct: purchased Merck Millipore (KinaseProfiler service)
Kind of experiment: KinaseProfiler assay, LIMK1. The experiment is classed as biochemical. To be noted: LIMK1; 10 μM; read-out: KAR value (kinase activity remaining). From the text: The kinase activity remaining (KAR) value is […] related to kinase activity. […]

Experiment [2] concerns A549 cell line. The experiment can be described thus: MTT cell viability, A549 cell line. The experiment is classed as cell-based, human.
Experiment [3] relates to H1299 human non-small cell lung cell line. The experiment can be described thus: MTT cell viability, H1299 cells. Conditions: 24 hours. The experiment is classed as cell-based. The method, then:
After drug treatment, the cells were washed with PBS and replaced with fresh complete RPMI-1640 medium for 2 days. Thereafter, the medium was replaced and the cells were incubated with 0.5 mg/mL of MTT reagent (Sigma Chemical Co., St. Louis, Mo.) in complete RPMI-1640 medium for 4 hours. The intensity of formazan was measured at 565 nm using a plate reader (VERSAmax, Molecular Dynamics, Sunnyvale, Calif.). The relative percentage of cell viability was calculated by dividing the absorbance of treated cells by that of the control in each experiment.

Experiment [4] has as its system A549 cells. Kind of experiment: Survivin overexpression (pCT-GFP-sur8 transfection) and MTT cell viability. The experiment is classed as cell-based, human. Conditions: A549 cells transfected with pCT-GFP-sur8 vs pCT-GFP2. The method, then:
To further determine the effect that Analogue-18 inhibits surviving so as to induce apoptosis. The pCT-GFP2 and pCT-GFP-sur8 were employed for transfection using Lipofectamine™ 2000 (Invitrogen) according to the manufacturer's instructions. The pCT-GFP-sur8 overexpressed surviving, and the pCT-GFP2 only overexpressed green fluorescent protein and was used as a control. A549 cells were plated in 60-mm Petri dish at a density of 2×10^6 per well for 16 to 20 hours, then were transfected with 20 μg of pCT-GFP-sur8 or pCT-GFP2 in serum-free medium for 8 hours at 37° C. in a CO2 incubator. Then, the equal amount medium with 20% fetal bovine serum (FBS) was added without removing the transfection mixture. And proceed the incubation for additional 24 hours. After transfection, the cells were subjected to cytotoxicity assay according to Example 2 and Western blot analysis according to Example 4.

As a reminder, the remaining activity is the signal under treatment as a percentage of the control signal. Broadly, the viability is a per cent measure of how many cells are alive, often set against a control.

SMILES strings stand for the structures. “Also recorded” adds a separate entry of the source.

T1 sequence (P53667 whole entry): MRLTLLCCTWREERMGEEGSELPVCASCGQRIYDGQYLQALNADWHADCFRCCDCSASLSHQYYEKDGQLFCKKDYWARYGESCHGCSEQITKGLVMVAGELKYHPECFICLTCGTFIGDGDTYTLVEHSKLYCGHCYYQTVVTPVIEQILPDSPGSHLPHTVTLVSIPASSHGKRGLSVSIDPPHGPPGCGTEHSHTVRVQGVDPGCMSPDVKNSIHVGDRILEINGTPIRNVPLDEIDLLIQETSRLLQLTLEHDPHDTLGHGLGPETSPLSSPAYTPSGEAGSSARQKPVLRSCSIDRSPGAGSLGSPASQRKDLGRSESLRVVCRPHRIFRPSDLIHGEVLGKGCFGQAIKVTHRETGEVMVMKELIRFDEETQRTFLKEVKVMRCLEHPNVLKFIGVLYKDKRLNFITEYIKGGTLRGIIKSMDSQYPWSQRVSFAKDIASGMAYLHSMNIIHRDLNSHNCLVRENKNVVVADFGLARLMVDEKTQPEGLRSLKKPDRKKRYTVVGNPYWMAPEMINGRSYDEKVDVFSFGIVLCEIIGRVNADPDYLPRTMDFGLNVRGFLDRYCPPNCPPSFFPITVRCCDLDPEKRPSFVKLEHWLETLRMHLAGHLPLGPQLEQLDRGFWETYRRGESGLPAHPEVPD

For `CCCCCCCCCCCCOC(=O)CCC(=O)N1CCN(CCCOc2cc3c(Nc4ccc(F)c(Cl)c4)ncnc3cc2OC)CC1` [Analogue-18, dodecyl 4-(4-(3-(4-(3-chloro-4-fluorophenylamino)-7-methoxyquinazolin-6-yloxy)propyl)piperazin-1-yl)-4-oxobutanoate], the remaining activity at 10 µM in experiment [1] was 82%. Besides, the “toxicity effect on A549 cell line” value in experiment [2] (24 hours, in comparison with Iressa) is given as “best toxicity effect; also recorded: more effective on reducing cell viability than Iressa”. For the same compound, the toxicity effects entry in experiment [2] (A549, 40 μM, 24 hours) is on record as “more than 99%”; in experiment [3] (H1299, 40 μM), “more than 99%”. The increased toxicity effect in experiment [2] (A549 cell line, 40 μM) is 15-20 times. The viability at 10 µM in experiment [2] (Homo sapiens, A549 cell line, 10 μM, 24 hours, MTT) stood at 95.5%. Also, the viability at 20 µM in experiment [2] (Homo sapiens, A549 cell line, 20 μM, 24 hours, MTT) turned out to be 86.8%. Besides, the viability at 40 µM in experiment [2] (Homo sapiens, A549 cell line, 40 μM, 24 hours, MTT) came out at 5.7%. For the same compound, in experiment [2] (Homo sapiens, A549 cell line, 60 μM, 24 hours, MTT), the viability at 60 µM came out at 2%. This compound also returned a viability at 80 µM in experiment [2] (Homo sapiens, A549 cell line, 80 μM, 24 hours, MTT) of 2.3%. For the same compound, the reducing cell viability entry in experiment [3] (H1299, 0 to 40 μM, compared with Iressa) is recorded as “more effective on reducing cell viability than Iressa”. The “resistance of survivin-overexpressing cells to induced apoptosis” value in experiment [4] is recorded as “the transfection of pCT-GFP-sur8 was more resistant to the Analogue-18-induced apoptosis than pCT-GFP2”.
